Among the test systems are BY4741; YBR084C-A; YCL025C; YCR005C; YKL103C; YNL142W.
What all share (experiment): TORC1 pathway position of GFP reporter effects – S. cerevisiae, TORC1 bypass vs wild-type strains, mechanism study for yeast TOR pathway modulator project (AID 504479)
Details in all cases: fluorescence ratio vs DMSO, at 10 µM

The mark [1] stands for this setting: RPL19A-GFP in TORC1 bypass strain, stronger effect = lower value.
The mark [2] stands for this setting: AGP1-GFP in TORC1 bypass strain, stronger effect = higher value.
Setting [3] is: CIT2-GFP in TORC1 bypass strain, stronger effect = higher value.
Where [4] appears, read: LAP4-GFP in TORC1 bypass strain, stronger effect = higher value.
[5] abbreviates: MEP2-GFP in TORC1 bypass strain, stronger effect = higher value.

Consider 16 compounds from PubChem BioAssay AID504479 (NMMLSC, 2011).

Molecules are shown by their SMILES. Active and inactive are the calls of the source.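 The calls were made as follows: active = GFP ratio vs DMSO below 0.65 in a strain, using the primary screen cutoff set for that strain's protein target; inactive = the rest.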

As to `Cc1ccc(C(=O)NNC(=S)NC(=O)COc2ccccc2)cc1`, the GFP ratio vs DMSO with BY4741 is 1.29 (inactive); in the test on YBR084C-A (setting [1]), 1.22; with YBR084C-A, 1.27 (inactive); with YCL025C (setting [2]) it was 0.914; in the test with YCL025C it was 1.11 (inactive); in the test on YCR005C (setting [3]), 0.861. Further, the GFP ratio vs DMSO in the test on YCR005C was 0.988 (inactive); in the test with YKL103C (setting [4]) it was 1.45; with YKL103C it was 2.49; in the test with YNL142W (setting [5]), 1.25; in the test with YNL142W it was 1.22 (inactive).

`O=C(CCc1ccccc1)NNC(=S)NC(=O)c1ccccc1`: the GFP ratio vs DMSO with BY4741 is 1.32 (inactive); in the test on YBR084C-A (setting [1]) it was 1.33; in the test on YBR084C-A it was 1.31 (inactive); in the test on YCL025C (setting [2]), 0.882; in the test on YCL025C it was 1.09 (inactive); in the test with YCR005C (setting [3]) it was 0.847. Also, the GFP ratio vs DMSO is 1.04 (inactive) in the test with YCR005C; 1.88 with YKL103C (setting [4]); 3.08 in the test on YKL103C; 1.28 with YNL142W (setting [5]); 1.3 (inactive) with YNL142W.

Take `Cc1ccc(S(=O)(=O)c2ncccc2[N+](=O)[O-])cc1`: the GFP ratio vs DMSO is 1.09 (inactive) with BY4741; 0.99 with YBR084C-A (setting [1]); 1.04 (inactive) with YBR084C-A; 0.888 in the test on YCL025C (setting [2]); 0.84 (inactive) in the test with YCL025C; 0.847 in the test with YCR005C (setting [3]). Also, the GFP ratio vs DMSO was 0.688 (inactive) in the test on YCR005C; 1.5 with YKL103C (setting [4]); 1.82 in the test on YKL103C; 1.01 in the test on YNL142W (setting [5]); 0.788 (inactive) in the test on YNL142W.

Turning to `O=C(OCn1ncc(Br)c(Br)c1=O)c1c(F)cccc1F`, the GFP ratio vs DMSO in the test with BY4741 was 0.824 (inactive); in the test with YBR084C-A (setting [1]) it was 1.05; with YBR084C-A it was 1 (inactive); in the test with YCL025C (setting [2]) it was 0.715; in the test on YCL025C it was 0.903 (inactive); in the test with YCR005C (setting [3]), 0.891. The GFP ratio vs DMSO in the test on YCR005C is 1.02 (inactive); in the test on YKL103C (setting [4]), 1.37; in the test on YKL103C, 1.86; with YNL142W (setting [5]), 0.876; in the test with YNL142W, 0.897 (inactive).

`CC(C)(C)n1nc(-c2ccc(Cl)cc2)c2c(N)ncnc21`: the GFP ratio vs DMSO is 0.794 (inactive) in the test with BY4741; 0.612 in the test with YBR084C-A (setting [1]); 0.547 with YBR084C-A; 0.927 with YCL025C (setting [2]); 0.943 (inactive) with YCL025C; 0.547 in the test on YCR005C (setting [3]). The GFP ratio vs DMSO with YCR005C was 0.359 (inactive); with YKL103C (setting [4]), 1.2; in the test on YKL103C, 1.48 (inactive); in the test with YNL142W (setting [5]), 0.887; in the test on YNL142W, 1.04 (inactive).

On to `O=S(=O)(CCN(CCS(=O)(=O)C(F)(F)F)CC1CCCO1)C(F)(F)F` (stereo unspecified), for which the GFP ratio vs DMSO in the test with BY4741 is 0.958 (inactive); in the test on YBR084C-A (setting [1]), 1.07; in the test with YBR084C-A, 1.05 (inactive); with YCL025C (setting [2]) it was 0.817; in the test with YCL025C it was 0.958 (inactive); in the test on YCR005C (setting [3]) it was 1.29. Besides, the GFP ratio vs DMSO is 1.41 (inactive) in the test on YCR005C; 1.2 with YKL103C (setting [4]); 1.85 in the test with YKL103C; 0.942 with YNL142W (setting [5]); 0.986 (inactive) with YNL142W.

On to `O=C(OCC(=O)N1CCN(C(=O)c2ccco2)CC1)c1cc(-c2cccc(Br)c2)nc2ccccc12`, for which the GFP ratio vs DMSO with BY4741 was 0.833 (inactive); in the test on YBR084C-A (setting [1]), 0.991; with YBR084C-A it was 0.79 (inactive); in the test on YCL025C (setting [2]), 1.08; in the test with YCL025C, 1.2 (inactive); in the test on YCR005C (setting [3]), 0.954. The GFP ratio vs DMSO in the test on YCR005C was 1.19 (inactive); in the test with YKL103C (setting [4]), 0.965; with YKL103C it was 1.37 (inactive); in the test with YNL142W (setting [5]), 1.01; in the test on YNL142W, 1.09 (inactive).

Regarding `O=C(Oc1c(Cl)cc(Cl)c2cccnc12)c1ccco1`, the GFP ratio vs DMSO with BY4741 was 1.18 (inactive); in the test with YBR084C-A (setting [1]) it was 1.29; in the test on YBR084C-A, 1.31 (inactive); in the test on YCL025C (setting [2]) it was 0.699; in the test with YCL025C it was 0.897 (inactive); in the test on YCR005C (setting [3]), 0.81. For the same compound, the GFP ratio vs DMSO was 0.971 (inactive) with YCR005C; 1.19 in the test on YKL103C (setting [4]); 1.78 in the test with YKL103C; 0.959 with YNL142W (setting [5]); 1.07 (inactive) with YNL142W.

In the case of `N/C(Cc1ccc(Cl)cc1)=N\OC(=O)c1cccc2ccccc12`, the GFP ratio vs DMSO with BY4741 is 1.38 (inactive); in the test on YBR084C-A (setting [1]), 0.818; with YBR084C-A, 0.76 (inactive); in the test on YCL025C (setting [2]), 0.679; with YCL025C it was 0.833 (inactive); with YCR005C (setting [3]), 0.748. Further, the GFP ratio vs DMSO was 2.21 in the test on YCR005C; 0.525 in the test with YKL103C (setting [4]); 1.24 (inactive) with YKL103C; 1.05 in the test with YNL142W (setting [5]); 1.23 (inactive) in the test with YNL142W.

Take `CCCOc1ccc(C(=O)NNC(=S)NC(=O)CC)cc1`: the GFP ratio vs DMSO was 1.32 (inactive) with BY4741; 1.36 in the test on YBR084C-A (setting [1]); 1.33 (inactive) in the test with YBR084C-A; 0.969 in the test with YCL025C (setting [2]); 1.17 (inactive) in the test with YCL025C; 0.905 in the test with YCR005C (setting [3]). Moreover, the GFP ratio vs DMSO is 0.994 (inactive) with YCR005C; 1.92 in the test on YKL103C (setting [4]); 2.96 in the test with YKL103C; 1.3 in the test with YNL142W (setting [5]); 1.24 (inactive) with YNL142W.

As to `O=[N+]([O-])c1ccc(O)c2ncccc12`, the GFP ratio vs DMSO in the test with BY4741 is 1.4 (inactive); in the test with YBR084C-A (setting [1]) it was 1.18; in the test with YBR084C-A, 1.23 (inactive); in the test with YCL025C (setting [2]) it was 0.99; in the test on YCL025C, 1.14 (inactive); in the test with YCR005C (setting [3]) it was 0.748. Besides, the GFP ratio vs DMSO was 1.27 (inactive) in the test on YCR005C; 1.88 in the test on YKL103C (setting [4]); 3.01 in the test with YKL103C; 1.06 with YNL142W (setting [5]); 1.21 (inactive) in the test with YNL142W.

`COc1ccc([N+](=O)[O-])c(S(=O)(=O)c2ccccc2)n1`: the GFP ratio vs DMSO in the test on BY4741 is 0.896 (inactive); in the test with YBR084C-A (setting [1]) it was 0.924; in the test with YBR084C-A it was 0.967 (inactive); with YCL025C (setting [2]) it was 0.971; in the test with YCL025C, 1.14 (inactive); in the test on YCR005C (setting [3]), 0.862. The GFP ratio vs DMSO in the test with YCR005C is 0.792 (inactive); with YKL103C (setting [4]), 1.33; in the test with YKL103C, 1.97; in the test on YNL142W (setting [5]) it was 0.877; in the test on YNL142W it was 1.03 (inactive).

For the compound `Cc1ccc(S(=O)(=O)c2ccc([N+](=O)[O-])cn2)cc1`, the GFP ratio vs DMSO in the test with BY4741 is 0.941 (inactive); in the test with YBR084C-A (setting [1]) it was 0.938; in the test with YBR084C-A it was 0.929 (inactive); with YCL025C (setting [2]) it was 0.813; with YCL025C, 1.11 (inactive); in the test with YCR005C (setting [3]), 0.861. The GFP ratio vs DMSO in the test with YCR005C was 1.05 (inactive); in the test on YKL103C (setting [4]) it was 1.67; with YKL103C it was 2.26; with YNL142W (setting [5]), 0.948; with YNL142W, 1.29 (inactive).

As for `CC(=O)SC(C[N+](=O)[O-])c1cn(C(C)=O)c2ccccc12` (stereo unspecified), the GFP ratio vs DMSO in the test with BY4741 is 0.941 (inactive); with YBR084C-A (setting [1]), 1.04; with YBR084C-A, 1.18 (inactive); with YCL025C (setting [2]), 0.739; in the test on YCL025C, 0.805 (inactive); in the test with YCR005C (setting [3]) it was 0.839. Further, the GFP ratio vs DMSO with YCR005C is 0.9 (inactive); in the test with YKL103C (setting [4]), 1.4; in the test on YKL103C, 1.8; in the test on YNL142W (setting [5]) it was 0.918; in the test with YNL142W, 0.743 (inactive).

For the compound `Cc1cc(C(=O)Nc2nc(-c3ccccn3)cs2)ccc1[N+](=O)[O-]`, the GFP ratio vs DMSO is 0.896 (inactive) with BY4741; 0.905 in the test on YBR084C-A (setting [1]); 0.985 (inactive) in the test on YBR084C-A; 1.03 in the test on YCL025C (setting [2]); 1.05 (inactive) in the test with YCL025C; 0.839 with YCR005C (setting [3]). Besides, the GFP ratio vs DMSO is 0.907 (inactive) in the test with YCR005C; 0.998 in the test on YKL103C (setting [4]); 1.02 (inactive) in the test with YKL103C; 1.04 in the test with YNL142W (setting [5]); 0.972 (inactive) in the test on YNL142W.

Consider `O=C1ON=C(c2ccccc2)/C1=C/c1ccco1`, for which the GFP ratio vs DMSO in the test on BY4741 is 0.912 (inactive); in the test on YBR084C-A (setting [1]), 0.972; with YBR084C-A it was 0.965 (inactive); in the test with YCL025C (setting [2]), 0.65; with YCL025C, 0.853 (inactive); with YCR005C (setting [3]), 0.825. In addition, the GFP ratio vs DMSO with YCR005C is 1.34 (inactive); with YKL103C (setting [4]), 1.17; with YKL103C, 1.64; with YNL142W (setting [5]), 1.01; with YNL142W, 1.03 (inactive).
